Entries after “also recorded” stand apart in the source; their conditions may differ.
Key:
iCas9 H1-hESCs [1] = assay: Assaying survival without ROCK inhibitor (single cell dissociation and replating, IncuCyte confluence / time-lapse); assay type: cell-based, human; conditions: control and PAWR knockout hPSCs, in the presence of thiazovivin (ROCK inhibitor)
Experimental: Control and mutant iCas9 H1-hESCs were dissociated with accutase for 10 minutes. Flowmi 40-micron cell strainers (BEL-ART H13680-0040) were used to ensure a uniform single cell suspension prior to replating cells. Cells were plated at a density of 10,500 to 21,000 cells/cm^2 plus or minus thiazovivin (ROCK inhibitor). Timelapse images were taken in 1 hr intervals using IncuCyte zoom (Essen Biosciences). The confluence processing analysis tool (IncuCyte Zoom Software) calculated confluency for each sample.

iCas9 H1-hESCs [2] = assay: Phalloidin stain of filamentous (F-) ACTIN in fixed cells after dissociation; assay type: cell-based, human; conditions: thiazovivin treated cells after dissociation, stain at 3.5 h
Experimental: Immunofluorescence staining of fixed cells was performed as described by Ihry et. al., 2017. Protein lysates were made by vortexing cell pellets in […] (Thermo Scientific 89901) supplemented with Halt protease inhibitor cocktail (Thermo Scientific 78430) and phosphatase inhibitors (Thermo Scientific 1862495). Samples were incubated at 4 C for 10 minutes before centrifugation at 14,000×g for 10 minutes at 4 C. Supernatants were transferred to new tubes and quantified using the BCA protein assay kit (Thermo Scientific 23225) and a SpectraMax Paradigm (Molecular Devices) plate reader. Samples were prepared with NuPAGE LDS sample buffer 4× (Invitrogen NP0008) and NuPAGE sample reducing agent (Invitrogen NP0009) and heated for 10 minutes at 70 C. Chameleon Duo Pre-stained Protein Ladder (LiCOR P/N 928-60000) was loaded alongside 10 ug of protein per sample on a NuPAGE 4-12% Bis-Tris Protein Gels, 1.5 mm, 10-well (Invitrogen NP0335BOX). Gel electrophoresis was performed at 150 V for 1 hr in NuPAGE MOPS SDS Running buffer (20×) (Invitrogen NP0001) using a XCell SureLock Mini-Cell (Thermo Scientific E10002). Transfer was performed using an iBlot 2 dry blotting system (Thermo IB21002 and IB23002) as described by manufacturer. Blots were blocked in TBS blocking buffer (LiCOR 927-50000) for 1 hour at room temperature. […]

## O=C(NCc1ccccc1)c1csc(Nc2ccncn2)n1 [thiazovivin]
iCas9 H1-hESCs [1]
  survival after single cell dissociation and replating: survive replating; also recorded: survived as single cells
iCas9 H1-hESCs [2]
  cytoskeletal organization (F-ACTIN, phalloidin): increased surface area, a fanned-out shape with actin stress fibers, and a large circular adhesion belt-like structure
